Reference: patent US20240269139A1, “COMPOUNDS FOR TARGETED PROTEIN DEGRADATION OF KINASES” (DANA-FARBER CANCER INSTITUTE, INC., priority 2020, published 2024)
Read-outs that look alike come from different tables or passages of the source.

Assays:
Type in all cases: cell-based
[1] = target: T1, protein kinases (human kinome) (Homo sapiens, UniProt O14965)
T1 sequence (O14965 1-403): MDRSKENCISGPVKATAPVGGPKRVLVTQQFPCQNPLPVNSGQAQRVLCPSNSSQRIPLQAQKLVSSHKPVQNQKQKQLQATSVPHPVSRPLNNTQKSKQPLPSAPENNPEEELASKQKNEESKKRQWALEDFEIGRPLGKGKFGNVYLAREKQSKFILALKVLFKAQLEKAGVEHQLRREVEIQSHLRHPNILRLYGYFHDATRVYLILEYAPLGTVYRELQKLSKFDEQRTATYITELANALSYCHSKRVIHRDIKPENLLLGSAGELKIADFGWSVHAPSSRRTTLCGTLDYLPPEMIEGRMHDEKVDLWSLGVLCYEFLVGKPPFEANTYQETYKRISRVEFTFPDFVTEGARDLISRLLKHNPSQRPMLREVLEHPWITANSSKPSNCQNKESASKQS

[2] = system: protein kinases (human kinome); conditions: for logFC MAPK8: MAPK8 P45983-4; for logFC RPS6KA1: RPS6KA1 (Q15418-2)
[3] = target: protein kinases (human kinome) (Homo sapiens, UniProt P51451)
[4] = target: protein kinases (human kinome) (Homo sapiens, UniProt P16591); conditions: for logFC of FER (P16591-1): Experiment wp146, down; for logFC of FER: FER P16591-1, experiment wp146
[5] = Accession O60566-3, experiment wp076, direction down
[6] = BUB1B (O60566-3), experiment wp076
[7] = CSNK1A1 (P48729-2), experiment wp076
[8] = CDK9 (P50750-2) protein abundance, degrader vs DMSO, down
[9] = CLK1 P49759-3, experiment wp076
[10] = AURKB Q96GD4-5, experiment wp146
[11] = Accession P49841-2, experiment wp146, direction down
[12] = CLK1 P49759-3, experiment wp146
[13] = Experiment wp146, direction down
[14] = GSK3B P49841-2, experiment wp146

Sequence of protein kinases (human kinome) (Homo sapiens, UniProt P16591) (P16591 whole entry): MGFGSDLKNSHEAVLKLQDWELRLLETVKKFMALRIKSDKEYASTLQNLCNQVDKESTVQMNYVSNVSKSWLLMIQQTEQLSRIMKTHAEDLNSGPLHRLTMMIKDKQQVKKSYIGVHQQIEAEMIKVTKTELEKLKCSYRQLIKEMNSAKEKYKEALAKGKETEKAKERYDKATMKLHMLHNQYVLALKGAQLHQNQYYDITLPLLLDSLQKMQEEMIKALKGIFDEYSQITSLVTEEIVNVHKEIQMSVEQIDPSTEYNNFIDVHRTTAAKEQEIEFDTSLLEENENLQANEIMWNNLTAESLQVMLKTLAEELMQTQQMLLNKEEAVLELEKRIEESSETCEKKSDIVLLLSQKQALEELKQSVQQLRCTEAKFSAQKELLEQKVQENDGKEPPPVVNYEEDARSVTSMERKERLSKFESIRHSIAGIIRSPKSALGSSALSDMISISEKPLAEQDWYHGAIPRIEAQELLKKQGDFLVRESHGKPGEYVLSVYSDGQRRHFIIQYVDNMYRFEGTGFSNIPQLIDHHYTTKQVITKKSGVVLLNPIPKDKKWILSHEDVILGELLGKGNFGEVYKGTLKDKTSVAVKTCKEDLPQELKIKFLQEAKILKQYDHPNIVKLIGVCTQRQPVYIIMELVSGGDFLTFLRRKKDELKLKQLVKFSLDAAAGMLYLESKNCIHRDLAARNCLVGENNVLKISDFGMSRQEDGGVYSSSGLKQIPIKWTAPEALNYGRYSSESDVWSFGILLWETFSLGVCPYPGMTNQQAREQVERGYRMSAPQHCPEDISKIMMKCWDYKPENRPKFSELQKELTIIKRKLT
Sequence of protein kinases (human kinome) (Homo sapiens, UniProt P51451) (P51451 whole entry): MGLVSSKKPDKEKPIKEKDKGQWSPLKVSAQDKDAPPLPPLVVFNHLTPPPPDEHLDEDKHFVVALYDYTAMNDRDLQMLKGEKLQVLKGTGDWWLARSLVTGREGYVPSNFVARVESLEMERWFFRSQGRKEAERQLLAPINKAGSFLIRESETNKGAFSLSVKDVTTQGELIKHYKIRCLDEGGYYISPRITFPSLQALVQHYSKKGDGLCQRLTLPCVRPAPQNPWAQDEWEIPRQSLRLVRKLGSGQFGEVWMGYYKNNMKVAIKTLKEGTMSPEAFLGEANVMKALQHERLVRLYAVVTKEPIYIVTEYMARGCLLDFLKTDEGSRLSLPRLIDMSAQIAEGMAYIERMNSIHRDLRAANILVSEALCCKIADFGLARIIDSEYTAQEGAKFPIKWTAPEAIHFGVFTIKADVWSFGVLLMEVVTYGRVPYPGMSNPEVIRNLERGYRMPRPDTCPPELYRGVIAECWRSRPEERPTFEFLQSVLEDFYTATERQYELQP

Row | Compound | logFC AURKA (O14965) ([1]; experiment wp076) | logFC BUB1B [2, 5] | logFC BUB1B [2, 6] | logFC [2, 7] | logFC of CSNK1A1 (P48729-2) ([2]; experiment wp076) | logFC [2, 8] | logFC AURKA (O14965) ([1]; experiment wp146) | logFC of FER (P16591-1) [4] | logFC of FER [4] | logFC [2, 10] | logFC AURKB [2, 10] | logFC GSK3B [2, 11] | logFC [2, 12] | logFC CLK1 [2, 12] | logFC MAPK8 (P45983-4) [2, 13] | logFC PRKAA1 (Q13131-2) [2, 13] | logFC GSK3B [2, 14] | logFC MAPK8 ([2]; experiment wp146) | logFC RPS6KA1 ([2]; experiment wp146) | logFC CDK9 (P50750-2) ([2]; experiment wp146) | other results
1 | CCc1cnn2c(N(Cc3ccc(N)nc3)C(=O)CCOCCOCCOCCNC(=O)CNc3cccc4c3C(=O)N(C3CCC(=O)NC3=O)C4=O)cc(N3CCCC[C@H]3CCO)nc12 (stereo partly drawn) [MFH.5.115.2] | −0.5912 | −0.5013 | −0.5013 | −0.349 | −0.349 |  |  |  |  |  |  |  |  |  |  |  |  |  |  |  | 
2 | O=C1CCC(N2C(=O)c3cccc(NCCCCCCCCN4CCC(NC(=O)c5[nH]ncc5NC(=O)c5c(Cl)cccc5Cl)CC4)c3C2=O)C(=O)N1 (stereo not drawn) [MFH.5.126.1] | −0.9474 | −0.7532 | −0.7532 | −0.4586 | −0.4586 | −0.7008 |  |  |  |  |  |  |  |  |  |  |  |  |  |  | logFC CSNK1D ([2]; Accession P48730-2, experiment wp076, direction down): −0.9201; logFC GSK3B ([2]; Accession P49841-2, experiment wp078, direction down): −0.9629; logFC [2, 9]: −1.494; logFC CLK1 [2, 9]: −1.494; logFC CSNK1D ([2]; CSNK1D P48730-2, experiment wp076): −0.9201; logFC DAPK1 (P53355-3) ([2]; Experiment wp076, direction of change down): −0.4488; logFC GSK3B ([2]; GSK3B P49841-2, experiment wp076): −0.9629; logFC CDK9 (P50750-2) ([2]; experiment wp076): −0.7008; logFC DAPK1 ([2]; protein DAPK1 (P53355-3), experiment wp076, down): −0.4488
3 | Nc1ncnc2c1c(-c1ccc(Oc3ccccc3)cc1)nn2[C@H]1CC[C@H](N2CCN(CCOCCNC(=O)CNc3cccc4c3C(=O)N(C3CCC(=O)NC3=O)C4=O)CC2)CC1 (stereo partly drawn) [SB1.G.181] |  |  |  |  |  |  |  |  |  |  |  |  |  |  |  |  |  |  |  |  | logFC AURKA (O14965) ([1]; experiment wp071): −0.3684; logFC ABL1 ([2]; ABL1 (P00519-2), experiment wp071): −1.735; logFC FYN ([2]; Accession P06241-2, experiment wp071): −2.276; logFC of SRC ([2]; Accession P12931-2, experiment wp071): −2.478; logFC FYN ([2]; FYN P06241-2, experiment wp071): −2.276; logFC LCK ([2]; LCK, accession P06239-3, experiment wp071, direction of change down): −1.774; logFC ([2]; SRC (P12931-2) protein abundance, degrader vs DMSO, down): −2.478; logFC ABL1 (P00519-2) ([2]; experiment wp071): −1.735; logFC LCK (P06239-3) ([2]; experiment wp071, direction of change down): −1.774; logFC of BLK ([3]; BLK P51451, experiment wp071): −2.337; logFC of BLK (P51451) ([3]; Experiment wp071, down): −2.337
4 | NC(=O)c1c(F)cccc1Nc1nc(Nc2ccc(S(=O)(=O)NCCOCCOCCOCCOCCNc3cccc4c3C(=O)N(C3CCC(=O)NC3=O)C4=O)cc2)ncc1Br (stereo not drawn) [TMX.02.138] |  |  |  |  |  | −1.889 | −2.933 | −0.8083 | −0.8083 | −1.832 | −1.832 | −0.604 | −0.4648 | −0.4648 | −0.9813 | −0.7125 | −0.604 | −0.9813 | −0.501 | −1.889 | logFC CDK16 (Q00536-2) ([2]; experiment wp146): −1.434; logFC PRKAA1 (Q13131-2) ([2]; experiment wp146): −0.7125; logFC RPS6KA1 (Q15418-2) ([2]; experiment wp146): −0.501
5 | Cc1cc(Nc2ncc(Br)c(Nc3cccc(F)c3C(N)=O)n2)ccc1S(=O)(=O)NCCOCCOCCOCCOCCNc1cccc2c1C(=O)N(C1CCC(=O)NC1=O)C2=O (stereo not drawn) [TMX.02.174] |  |  |  |  |  | −1.666 | −2.865 | −1.089 | −1.089 | −1.578 | −1.578 | −0.6472 | −0.4606 | −0.4606 | −0.7761 | −1.622 | −0.6472 | −0.7761 | −0.6638 | −1.666 | logFC CDK16 (Q00536-2) ([2]; experiment wp146): −1.176; logFC PRKAA1 (Q13131-2) ([2]; experiment wp146): −1.622; logFC RPS6KA1 (Q15418-2) ([2]; experiment wp146): −0.6638; logFC NEK1 (Q96PY6-3) ([2]; experiment wp146, direction of change down): −0.3871; logFC NEK1 ([2]; protein NEK1 (Q96PY6-3), experiment wp146, down): −0.3871
